Data on 1 compound can be found in patent publication US20230218589A1, “COMPOUND FOR PREVENTION OR TREATMENT OF A SKIN CANCER OR SKIN PRECANCER” (UNIQUEST PTY LTD, priority 2020, published 2023).

The test system of one assay is HPV38-E6/E7 SCC cells. Description: Mouse back cSCC tumour model, tacrolimus diet, intra-tumoural injection. As to conditions: in vivo.
Assay [1] has as its system 5117-RE (spindle cell sarcoma) cells. Kind of assay: Mouse back 5117-RE tumour model (spindle cell sarcoma, Kaposi sarcoma model). The class given is in vivo. Here is the method:
Tacrolimus diet: All customised mice diet was manufactured by Specialty Feeds (Perth, Wash.). Briefly, tacrolimus (MedChemExpress) was mixed with caster sugar and then incorporated into standard mouse diet. […] Food colouring was added to distinguish the drug. During the manufacturing process the pellets were air-dried overnight rather than dried in an oven in order to minimise the amount of heat applied. The final product was sealed in airtight bags and stored at 4° C. protected from light to ensure minimal degradation. Pellet volumes in feed hoppers were kept to a minimum and restocked every 3-4 days for the duration of the experiments.
Compound 1 preparation: Compound 1 (Cmpd 1) was prepared at the beginning of each dosing week as a 1 or 2 mg/mL solution as required in 4% ethanol/0.2% Tween-80/PBS. Compound 1 solution was stored at 4° C. for up to one week.
Mouse back 5117-RE tumour model: Method as per the above section (Mouse back cSCC tumour model), with the following changes; BALBc mice were used, and 5117-RE cells were cultured and passaged for 1 week prior to tumour cell injection in RPMI media (Gibco) supplemented with 10% heat inactivated FBS (Gibco) and 1× Penicillin/Streptomycin/Glutamine (Gibco).
Dissociation of tumour cells for FACS analysis: To release cells from tumours, harvested tissue was cut into small fragments and digested for 60 min at 37° C. in RPMI media containing 2% FBS, 3 mg/mL collagenase D and 5 ug/mL DNase I. Tissues were then gently pressed through a 70 μm cell strainer to create a single-cell suspension. […]
FACS analysis: Stained tumour dissociated cells were then washed twice, resuspended in FACS buffer and Flow cytometric analysis was performed using LSR Fortessa X20 (BD Biosciences) flow cytometers with FACSDiva. software (Becton Dickinson, Sparks, Md., USA). Data were exported and analyzed using FlowJo software (I'reestar Inc., Ashland, Oreg., USA).
Mice were injected sub-cutaneously with 1×10^6 5117-RE (spindle cell sarcoma) cells into the lower back and tumour size was monitored 3 times a week throughout the experiment. […]

Take `CC[C@@H]1/C=C(\C)[C@@H](O)[C@H](C)C[C@H](OC)[C@H]2O[C@@](O)(C(=O)C(=O)N3CCCC[C@H]3C(=O)O[C@H](/C(C)=C/[C@@H]3CC[C@@H](O)[C@H](OC)C3)[C@H](C)[C@@H](O)CC1=O)[C@H](C)C[C@@H]2OC` [Compound 1, 17-Ethyl-1,14,20-trihydroxy-12-[2′-(4″-hydroxy-3″-methoxycyclohexyl)-1′-methylvinyl]-23,25-dimethoxy-13,19,21,27-tetramethyl-11,28-dioxa-4-azatricyclo-[22.3.1.0^4,9]octacos-18-ene-2,3,10,16-tetraone]: in the assay with HPV38-E6/E7 SCC cells, the “percentage of CD69+ (activated) CD8 T cells isolated from the tumour” value is given as “significantly increased”, the “percentage of IFN gamma+ CD8 T cells isolated from the tumour” value is “significantly increased”, the “percentage of TNF alpha+ CD8 T cells isolated from the tumour” value is recorded as “significantly increased” and the “tacrolimus dependent-tumour growth compared to the vehicle control” value is listed as “significantly reduced”. Moreover, in the assay on HPV38-E6/E7 SCC cells, the “tacrolimus dependent-tumour growth compared to the vehicle control, without CD8 depletion” value was “significantly reduced” and the “tumour regression after CD8 depletion” value is “no longer able cause tumour regression”. The “tacrolimus dependent-tumour growth compared to the vehicle control” value in assay [1] (BALBc mice, BID IT 40 μL of 2 mg/mL, after 10 days treatment, tacrolimus 150 ppm diet) is “significantly reduced”. Also, in assay [1] (after 13 days treatment), the “percentage of TNF alpha+ CD8 T cells isolated from the tumour” value was “significantly increased”. The “percentage of IFN gamma+ CD8 T cells isolated from the tumour” value in assay [1] (after 13 days treatment, ex vivo stimulation with CD3/CD28) is “significantly increased”.
